Assay results taken from the NIST ThermoML archive (doi:10.1016/j.jct.2017.01.016).
Numbers after ± are expanded uncertainties.

Assay: xn = mol fraction of the nth substance listed
Details: 101 kPa, Liquid; for viscosity: Capillary tube (Ostwald / Ubbelohde) method; for speed of sound: Frequency=3 MHz, Linear variable-path acoustic interferometer

Cc1cccc(C)c1 [1,3-dimethylbenzene] + C1COCCO1
Details | speed of sound [m/s] | viscosity [mPa·s]
293.15 K, x2 = 0 | 1346.7 ± 1.7 | 0.6184 ± 0.013
293.15 K, x2 = 0.0938 | 1341.2 ± 1.7 | 0.674 ± 0.014
293.15 K, x2 = 0.1532 | 1338.2 ± 1.7 | 0.7104 ± 0.015
293.15 K, x2 = 0.2046 | 1335.9 ± 1.7 | 0.7427 ± 0.015
293.15 K, x2 = 0.2698 | 1333.4 ± 1.7 | 0.7843 ± 0.016
293.15 K, x2 = 0.3374 | 1331.4 ± 1.7 | 0.8284 ± 0.017
293.15 K, x2 = 0.4002 | 1330.1 ± 1.7 | 0.8702 ± 0.018
293.15 K, x2 = 0.4714 | 1329.3 ± 1.7 | 0.9186 ± 0.019
293.15 K, x2 = 0.5487 | 1329.6 ± 1.7 | 0.9721 ± 0.02
293.15 K, x2 = 0.63 | 1331.2 ± 1.7 | 1.03 ± 0.021
293.15 K, x2 = 0.7182 | 1335 ± 1.7 | 1.093 ± 0.023
293.15 K, x2 = 0.8035 | 1341 ± 1.7 | 1.156 ± 0.024
293.15 K, x2 = 0.8708 | 1347.8 ± 1.7 | 1.207 ± 0.025
293.15 K, x2 = 0.9324 | 1355.8 ± 1.7 | 1.254 ± 0.026
298.15 K, x2 = 0 | 1323.6 ± 1.7 | 0.584 ± 0.012
298.15 K, x2 = 0.0938 | 1318.3 ± 1.7 | 0.633 ± 0.013
298.15 K, x2 = 0.1532 | 1315.4 ± 1.7 | 0.6651 ± 0.014
298.15 K, x2 = 0.2046 | 1313.2 ± 1.7 | 0.6934 ± 0.015
298.15 K, x2 = 0.2698 | 1310.8 ± 1.7 | 0.7303 ± 0.015
298.15 K, x2 = 0.3374 | 1308.8 ± 1.7 | 0.7694 ± 0.016
298.15 K, x2 = 0.4002 | 1307.6 ± 1.7 | 0.8064 ± 0.017
298.15 K, x2 = 0.4714 | 1307 ± 1.7 | 0.8493 ± 0.018
298.15 K, x2 = 0.5487 | 1307.3 ± 1.7 | 0.8968 ± 0.019
298.15 K, x2 = 0.63 | 1309.1 ± 1.7 | 0.948 ± 0.02
298.15 K, x2 = 0.7182 | 1312.9 ± 1.7 | 1.005 ± 0.021
298.15 K, x2 = 0.8035 | 1318.8 ± 1.7 | 1.061 ± 0.022
298.15 K, x2 = 0.8708 | 1325.5 ± 1.7 | 1.106 ± 0.023
298.15 K, x2 = 0.9324 | 1333.5 ± 1.7 | 1.148 ± 0.024
303.15 K, x2 = 0 | 1302.4 ± 1.7 | 0.5517 ± 0.012
303.15 K, x2 = 0.0938 | 1297.2 ± 1.6 | 0.5953 ± 0.013
303.15 K, x2 = 0.1532 | 1294.4 ± 1.6 | 0.6236 ± 0.013
303.15 K, x2 = 0.2046 | 1292.2 ± 1.6 | 0.6487 ± 0.014
303.15 K, x2 = 0.2698 | 1289.8 ± 1.6 | 0.6811 ± 0.014
303.15 K, x2 = 0.3374 | 1287.9 ± 1.6 | 0.7159 ± 0.015
303.15 K, x2 = 0.4002 | 1286.6 ± 1.6 | 0.7488 ± 0.016
303.15 K, x2 = 0.4714 | 1286 ± 1.6 | 0.787 ± 0.016
303.15 K, x2 = 0.5487 | 1286.3 ± 1.6 | 0.8293 ± 0.017
303.15 K, x2 = 0.63 | 1288.1 ± 1.6 | 0.875 ± 0.018
303.15 K, x2 = 0.7182 | 1291.9 ± 1.6 | 0.9258 ± 0.019
303.15 K, x2 = 0.8035 | 1297.7 ± 1.6 | 0.976 ± 0.02
303.15 K, x2 = 0.8708 | 1304.4 ± 1.7 | 1.016 ± 0.021
303.15 K, x2 = 0.9324 | 1312.2 ± 1.7 | 1.054 ± 0.022
308.15 K, x2 = 0 | 1282.3 ± 1.6 | 0.5229 ± 0.011
308.15 K, x2 = 0.0938 | 1277.1 ± 1.6 | 0.5621 ± 0.012
308.15 K, x2 = 0.1532 | 1274.3 ± 1.6 | 0.5875 ± 0.012
308.15 K, x2 = 0.2046 | 1272.1 ± 1.6 | 0.6101 ± 0.013
308.15 K, x2 = 0.2698 | 1269.7 ± 1.6 | 0.6392 ± 0.013
308.15 K, x2 = 0.3374 | 1267.8 ± 1.6 | 0.6706 ± 0.014
308.15 K, x2 = 0.4002 | 1266.5 ± 1.6 | 0.7002 ± 0.015
308.15 K, x2 = 0.4714 | 1265.8 ± 1.6 | 0.7347 ± 0.015
308.15 K, x2 = 0.5487 | 1266 ± 1.6 | 0.773 ± 0.016
308.15 K, x2 = 0.63 | 1267.7 ± 1.6 | 0.8144 ± 0.017
308.15 K, x2 = 0.7182 | 1271.2 ± 1.6 | 0.8604 ± 0.018
308.15 K, x2 = 0.8035 | 1276.9 ± 1.6 | 0.9061 ± 0.019
308.15 K, x2 = 0.8708 | 1283.2 ± 1.6 | 0.943 ± 0.02
308.15 K, x2 = 0.9324 | 1290.7 ± 1.6 | 0.9769 ± 0.02
313.15 K, x2 = 0 | 1262.3 ± 1.6 | 0.4938 ± 0.01
313.15 K, x2 = 0.0938 | 1257.2 ± 1.6 | 0.5297 ± 0.011
313.15 K, x2 = 0.1532 | 1254.3 ± 1.6 | 0.553 ± 0.012
313.15 K, x2 = 0.2046 | 1252.2 ± 1.6 | 0.5737 ± 0.012
313.15 K, x2 = 0.2698 | 1249.8 ± 1.6 | 0.6005 ± 0.013
313.15 K, x2 = 0.3374 | 1247.9 ± 1.6 | 0.6291 ± 0.013
313.15 K, x2 = 0.4002 | 1246.6 ± 1.6 | 0.6563 ± 0.014
313.15 K, x2 = 0.4714 | 1245.8 ± 1.6 | 0.688 ± 0.014
313.15 K, x2 = 0.5487 | 1246 ± 1.6 | 0.7231 ± 0.015
313.15 K, x2 = 0.63 | 1247.5 ± 1.6 | 0.7611 ± 0.016
313.15 K, x2 = 0.7182 | 1250.9 ± 1.6 | 0.8034 ± 0.017
313.15 K, x2 = 0.8035 | 1256.4 ± 1.6 | 0.8453 ± 0.018
313.15 K, x2 = 0.8708 | 1262.4 ± 1.6 | 0.8793 ± 0.018
313.15 K, x2 = 0.9324 | 1269.6 ± 1.6 | 0.9105 ± 0.019
318.15 K, x2 = 0 | 1243 ± 1.6 | 0.468 ± 0.0099
318.15 K, x2 = 0.0938 | 1237.9 ± 1.6 | 0.501 ± 0.01
318.15 K, x2 = 0.1532 | 1235.1 ± 1.6 | 0.5226 ± 0.011
318.15 K, x2 = 0.2046 | 1232.9 ± 1.6 | 0.5416 ± 0.011
318.15 K, x2 = 0.2698 | 1230.5 ± 1.6 | 0.5665 ± 0.012
318.15 K, x2 = 0.3374 | 1228.5 ± 1.6 | 0.5928 ± 0.012
318.15 K, x2 = 0.4002 | 1227.2 ± 1.6 | 0.6178 ± 0.013
318.15 K, x2 = 0.4714 | 1226.4 ± 1.6 | 0.647 ± 0.014
318.15 K, x2 = 0.5487 | 1226.5 ± 1.6 | 0.6794 ± 0.014
318.15 K, x2 = 0.63 | 1227.9 ± 1.6 | 0.7144 ± 0.015
318.15 K, x2 = 0.7182 | 1231.1 ± 1.6 | 0.7535 ± 0.016
318.15 K, x2 = 0.8035 | 1236.2 ± 1.6 | 0.7922 ± 0.017
318.15 K, x2 = 0.8708 | 1242 ± 1.6 | 0.8232 ± 0.017
318.15 K, x2 = 0.9324 | 1248.9 ± 1.6 | 0.852 ± 0.018
